Source: a melting point compilation (Tetko et al.; mined from patent text by program, amines drawn as free bases though some values may be those of a salt)

SMILES	melting point [°C]
CC(C)C(=O)c1cccc(S(N)(=O)=O)c1	170 to 171
Oc1cccc2c1c1cccc(Cl)c1n2Cc1ccccc1	163 to 166
COc1ccc(S(=O)(=O)N2C(=O)C(N)(c3ccccc3OC)c3cc(Cl)ccc32)c(OC)c1 (stereo not given)	172 to 173
CCc1c(C)nc2c(C)cccn2c1=O	90 to 92
CN(C)n1cn[nH]c1=O	127
CC(=O)OCCCc1c(C)[nH]c(C(=O)OC(C)(C)C)c1C	73
CC1(C)Cc2ccccc2C1c1cncnc1SCc1cccc(F)c1 (stereo not given)	60 to 62
CC(C)=NNC(=O)c1ccc(-c2ccc(Cl)cc2)o1	167 to 169
CNC(=O)C(=O)CCCCCCSc1ccc(-c2ccccc2)cc1	131 to 132
CCOC(=O)/C(=N\OC12CC3CC(CC(C3)C1)C2)c1csc(N)n1	152 to 153
CS(=O)(=O)c1ccc(-c2cc(=O)n(CC(F)(F)F)nc2-c2ccc(F)cc2)cc1	177 to 179
CC(C)c1ccc2c(c1)C(c1ccc(Cl)c(Cl)c1)Cc1cnc(N)nc1-2 (stereo not given)	174 to 176
CC1CN(C)Cc2cc(-c3ccccc3)n(Cc3ccccc3)c21 (stereo not given)	90 to 91
CS(=O)(=O)Oc1cnc2cc(OC(F)(F)F)ccc2c1O	125 to 127
CN(C)c1nc(Nc2cc(C(=O)NC3CCC3)n[nH]2)c2occc2n1	250
COc1ccc2[nH]c3c(C(=O)Nc4ccc(CCCCN(C)CCc5ccc(OC)c(OC)c5)cc4)cccc3c(=O)c2c1	155
N#C/C=C1\CCc2cc(Br)c3c(c21)CCO3	200 to 203
Nc1cc(C(=O)O)cc(N)c1O	205
O=CCCCOC(c1ccccc1)(c1ccccc1)c1ccccc1	62 to 65
COc1cc2cc(-c3ccccc3Cl)sc2c(Cl)c1Cl	170 to 171
CCCC(=O)c1cnc2c(N)cccc2c1Nc1ccccc1C	108 to 110
COC(=O)C1=C(C)NC(C)=C(C(=O)OCOC(=O)C(C)C)C1c1cccc(Cl)c1Cl (stereo not given)	145
COc1ccc2c(c1)sc1nc(C)c(CO)n12	204
CC(C)Cn1c(=O)n(C)c(=O)c2c(Sc3ccccn3)c(Cc3cccc4ccccc34)sc21	148 to 149
CON=Cc1ncn2c1[C@@H]1CCN1C(=O)c1c(Cl)cccc1-2	199 to 200

SMILES	melting point [°C]
COc1ccc(-c2c(C(C)=O)c(C)nc3cc(OC)c(OC)cc23)cc1OC	210 to 211
CCOC(=O)c1cnc2scc(C)c2c1O	189 to 192
O=C(NO)C1(S(=O)(=O)c2ccc(OCC#CCN3CCOCC3)cc2)CCN(Cc2ccc(Br)cc2)CC1	94
CSc1nn2c(N(C)C)cc(C)nc2c1S(=O)(=O)c1ccc(C(C)C)cc1	222 to 224
COc1cc2ncc(C#N)c(Cl)c2cc1OC	220 to 223
O=C(Nc1c(C(O)(C(F)(F)F)C(F)(F)F)ccc2ccccc12)c1cccc([N+](=O)[O-])c1	211 to 212
Oc1nc2cccnc2n1Cc1ccccc1	177 to 179
OC1(C#Cc2ccccc2Cc2ccccc2)CN2CCC1CC2 (stereo not given)	156 to 157
CN1CCC(O)(c2cnc3ccccc3c2)CC1	175
CCOC(=O)c1cc2c3n(ccc-2n1)CC(C=O)=N3	82 to 84
COC(=O)c1cc(I)cnc1Cl	49 to 50
CCn1cc(C(=O)O)c(=O)c2cc(F)c(N3CCN(C)C(c4cc[nH]c4)C3)cc21 (stereo not given)	150 to 152
C=CCc1c(OCOC)cc(OCOC)c(C(=O)C=Cc2ccc(OCOC)cc2)c1O	68 to 69
Cc1cc2nc(C(C)(C)C(=O)O)cn2nc1OCCCN1CCC(OC(c2ccccc2)c2ccccc2)CC1	122
CN(C)CCCN(C)C1CCC2C3CCC4CCCCC4(C)C3C(O)CC21C (stereo not given)	130 to 131
OCc1cccc2nnsc12	79 to 81
CC(=O)NC(C)c1ccc(CN2CCN(c3ccc(F)cc3F)CC2)cc1 (stereo not given)	109 to 111
COc1ccc(F)cc1C(C)(C)CC(O)(Cc1cccc(C(N)=O)c1)C(F)(F)F (stereo not given)	70 to 75
Cc1nc2cc3c(cc2c(=O)[nH]1)CCC3	284
O=C1CC(c2cccc(-n3ccnc3)c2)=Nc2ccc(-c3cccc(F)c3)cc2N1	200 to 201
CC(C)(C)c1cc(C=CC#N)cc(C(C)(C)C)c1O	109 to 113
Cc1ccc(-n2nc(C(C)(C)C)cc2NC(=O)Nc2ccc(OCCN3CCS(=O)CC3)c3ccccc23)cc1	205 to 207
CN1CCN(C2CC3C4CCC5CC(O)C(N6CCC(O)CC6)CC5(C)C4CCC3(C)C2O)CC1 (stereo not given)	248 to 250
COc1ccc(N2CCN(c3c(C)c(C)c4c(c3C)C(CCc3ccccc3)C(C)(C)O4)CC2)cc1 (stereo not given)	92 to 94
O=C(NC(Cc1ccncc1)C(=O)O)OCc1cc2cc(-c3cccnc3)ccc2o1 (stereo not given)	257

SMILES	melting point [°C]
COC(=O)c1ccc2c(c1)COC(C(Cl)(Cl)Cl)N2 (stereo not given)	116 to 117
CCCOc1ccc(CN/C=C2\C(=O)NC(=O)c3ccc(-c4ccc(F)cc4)cc32)cc1O	194 to 195
Nc1ccc(CC(=O)O)cc1Br	139 to 140
Cc1c(NC(=O)c2ccc(-c3ccccc3Cl)cc2)ccc2cc(CN3CCCC3)cnc12	128 to 129
CC(C(=O)OCc1ccccc1)c1cccc(NC(=O)NCC(=O)N2[C@@H](c3ccccc3)CC[C@H]2C(=O)OC(C)(C)C)c1 (stereo not given in full)	75
O=S1(=O)NCN(CCF)c2ccc(Br)cc21	122 to 124
O=C(Nc1ccc2c(c1)C(=O)C1(CC1)O2)OCc1ccccc1	118 to 119
Cc1cn2c(N)c(Cl)cc(C(=O)NCC3CCN(CC(=O)C(C)(C)C)CC3)c2n1	198
COC(=O)c1nn(Cc2ccccc2)c2c1CCc1cc(OCc3cncnc3)ccc1-2	202 to 203
CC1(C)CC(N(CCO)CC(O)COc2ccc(C(C)(C)c3ccc(OCC(O)CN(CCO)C4CC(C)(C)NC(C)(C)C4)cc3)cc2)CC(C)(C)N1 (stereo not given)	69 to 71
CCOC(=O)C1=Cc2cc(F)c(Cl)cc2N(Cc2ccccc2)C1	211 to 212
OC(CN1CCN(c2ccncc2)CC1)c1ccc2nonc2c1 (stereo not given)	159 to 162
CC(C)(C)C(=O)Oc1ccc(OC(=O)C(C)(C)C)c(C(=O)O)c1	159 to 162
Cc1cc(C2=NNC(C)(C#N)Cc3cc4c(cc32)OCO4)ccc1[N+](=O)[O-] (stereo not given)	148 to 151
CC(=O)SCC(CC#N)C(=O)O (stereo not given)	110 to 112
O=S(c1[nH]c(-c2ccc(Cl)cc2)c(Br)c1Br)C(F)(F)F (stereo not given)	173 to 176
Cc1cc(-c2nc3cccnn3c2-c2ccnc(NC(=O)c3ccnc(Cl)c3)c2)ccc1F	224 to 225
N#Cc1ccc(Oc2ccc(C3CCCN4CCS(=O)(=O)N=C34)cc2)cc1Cl (stereo not given)	219 to 220
CC(C)(C)OC(=O)N1CCC(Oc2ccc(C3=NNC(=O)CC3c3ccccn3)cc2)CC1 (stereo not given)	213 to 214
CCc1cc2c(cc1F)c(S(C)(=O)=O)c(-c1ccc(S(=O)(=O)NC(C)(C)C)cn1)n2-c1ncccn1	244 to 248
COc1ccc(CS(=O)(=O)CC(=O)O)cc1O	164 to 165
COC(=O)N(C)c1cccc(C(=O)C=CN(C)C)c1	93 to 95
O=C(O)c1cccc2nc3ccc4[nH]ncc4c3nc12	305 to 310
O=C(O)C[S@](=O)C(c1ccccc1)c1ccccc1	118 to 120
CCCCNc1cc(C(=O)O)cc(S(N)(=O)=O)c1-c1ccccc1	134 to 136

SMILES	melting point [°C]
CCOC(=O)c1ccc(CSc2nnc(C)s2)cc1	55 to 58
N#Cc1ccccc1N1CCN(C[C@@H](O)COc2cccc(-c3noc4ccsc34)c2)CC1	87 to 89
CS(=O)(=O)c1cc2[nH]c(=O)c(=O)n(C3CCCCC3)c2cc1[N+](=O)[O-]	> 280
CN(C)c1cccc2c(S(=O)(=O)Nc3ccc4nonc4c3)cccc12	106
COc1ccc(C#Cc2cccc(CN(O)C(C)=O)c2)cc1	124 to 126
NC(=O)c1ccc(N2CCNCC2)cc1	240 to 243
COC(=O)c1ccc2c(c1)C(=O)C(C=C1C=CC=C(C(=O)O)C1)O2 (stereo not given)	280
O=C(O)c1cccc(COc2ccccc2Cl)c1OCc1ccccc1Cl	96 to 98
ON=C1CCC(c2ccc(Cl)c(Cl)c2)c2ccccc21 (stereo not given)	159 to 162
Cc1ccc(C(=O)NCCN(C)C)cc1-n1c(C)cc(OCc2ccc(F)cc2CNC(=O)Nc2cc(C(C)(C)C)nn2-c2ccc(Cl)c(O)c2)c(Cl)c1=O	177 to 178
COc1cc(C(=O)C(=O)c2ccccc2)c(OC)cc1C(=O)C(=O)c1ccccc1	209 to 211
CCCCOC(=O)CS(=O)(=O)C=C1SC=CS1	87 to 88
CCOC(=O)CN(CC(=O)OCC)[C@H]1CC[C@H](Nc2ncc3ncnc(Nc4ccc(F)c(Cl)c4)c3n2)CC1	155 to 157
O=C(O)CCc1ccc(OCCn2c(=O)sc3cc(Cc4ccccc4)ccc32)cc1	158 to 163
COc1cc(C(C)=O)ccc1OCCCN1C2CCC1CC(c1nsc3cc(F)ccc13)C2 (stereo not given)	118 to 119
COc1ccc(OC)c(C=CC#N)c1	70 to 71
COc1ccc(NC(=O)c2cccnc2)c2c1oc1ccccc12	200 to 203
Clc1ccc(Oc2ccc(Cl)nn2)cc1	119
O=C(O)C(=O)c1ccc(S(=O)(=O)CCOc2ccc3ccccc3c2)cc1	135 to 136
CC(=O)OC1CSC(Oc2cccc(-c3cccnc3Cl)c2)C(OC(C)=O)C1OC(C)=O (stereo not given)	146 to 147
CCOC(=O)c1cc(NCc2ccccc2)c(Nc2ccc(C)cc2)c(S(N)(=O)=O)c1	159 to 160
O=C(O)c1ccccc1Nc1ccc(I)cc1	205 to 206
CCNc1nc(SC)ncc1C=Nc1cc(OC)cc(OC)c1	100 to 105
C#CCS(=O)(=O)c1ccc(NC(C)=O)cc1	175 to 179
Oc1nc2ccc3nonc3c2nc1O	> 300
